From patent publication US20230148588A1, “METHODS, COMPOSITIONS, AND SYSTEMS FOR ENHANCING EX-VIVO ORGAN PERFUSION” (University Health Network, priority 2020, published 2023)
“Also recorded” adds a separate entry of the source. Blank lines part the entries; values can stand above or below the compound they belong to. Where a SMILES comes first, the peptide text is derived from it.

Experiments:
[1] = test system: human lung epithelial cells (BEAS-2B); test: Basic cellular function of cells exposed to Steen solution and its modifications (IncuCyte Live Cell Analysis); format: cell-based; details: for apoptosis / cell migration: GlutaMax added at 4 mM to Steen solution, vs Steen solution
Description: (§1) Methods: Human pulmonary microvascular endothelial cells (HPMEC) and human lung epithelial cells (BEAS-2B) were used to determine the effects of Steen solution components on basic cellular function. Cell confluence, apoptosis and migration were visualized and quantified by IncuCyte® Live Cell Analysis System in real-time. A simulated EVLP cell culture model was established by replacing regular culture medium with cold lung preservation solution and followed by “perfusion” with normothermic Steen solution or its modifications. Cell apoptosis was quantified. Porcine lung EVLP was performed using Steen solution with added nutrients.
(§2) The effects of glutamine in Steen solution on mitochondrial respiration and glycolytic function were examined using a Seahorse XFe analyzer.

[2] = test system: human pulmonary microvascular endothelial cells (HPMEC); test: as above; format: cell-based; details: for apoptosis / cell migration: GlutaMax added at 4 mM to Steen solution, vs Steen solution
Description: as §1, §2

BEAS-2B = test: Simulated EVLP cell culture model (cold Perfadex preservation, then perfusion with Steen solution with and without GlutaMax); format: cell-based, human; details: for total GSH production: fluorometric assay kit; for apoptosis: GlutaMax 0.5 mM to 4 mM in Steen solution, after 6 h or 18 h cold preservation, simulated EVLP
Description: (§3) Methods: Human pulmonary microvascular endothelial cells (HPMEC) and human lung epithelial cells (BEAS-2B) were used to determine the effects of Steen solution components on basic cellular function. Cell confluence, apoptosis and migration were visualized and quantified by IncuCyte® Live Cell Analysis System in real-time. A simulated EVLP cell culture model was established by replacing regular culture medium with cold lung preservation solution and followed by “perfusion” with normothermic Steen solution or its modifications. Cell apoptosis was quantified. Porcine lung EVLP was performed using Steen solution with added nutrients. A cell culture model was developed that simulates hypothermic lung preservation and reperfusion and was used to “perfuse” cells with EVLP perfusate, as shown in FIG. 6A. Culture medium of confluent cells was replaced with 4° C. lung preservation solution (Perfadex®) for 6 h or 18 h, and then “perfused” with Steen solution with and without GlutaMax. […] Human lung endothelial and epithelial cells were subjected to simulated EVLP treated with Steen solution with and without GlutaMax. GSH concentration in cell culture was measured with a fluorometric assay kit from BioVision.

HPMEC = test: as above; format: cell-based, human; details: for total GSH production: fluorometric assay kit; for apoptosis: GlutaMax 0.5 mM to 4 mM in Steen solution, after 6 h or 18 h cold preservation, simulated EVLP
Description: as §3

IL-8 = IL-8 production in simulated EVLP cell culture model; format: cell-based, human; details: prolonged CIT (18 h) and simulated EVLP (12 h)
Description: A cell culture model was developed that simulates hypothermic lung preservation and reperfusion and was used to “perfuse” cells with EVLP perfusate, as shown in FIG. 6A. Culture medium of confluent cells was replaced with 4° C. lung preservation solution (Perfadex®) for 6 h or 18 h, and then “perfused” with Steen solution with and without GlutaMax.

pig lung = test: Pig lung EVLP with GlutaMax-modified Steen solution; details: for lung function: compared with historical controls
Description: Methods: Human pulmonary microvascular endothelial cells (HPMEC) and human lung epithelial cells (BEAS-2B) were used to determine the effects of Steen solution components on basic cellular function. Cell confluence, apoptosis and migration were visualized and quantified by IncuCyte® Live Cell Analysis System in real-time. A simulated EVLP cell culture model was established by replacing regular culture medium with cold lung preservation solution and followed by “perfusion” with normothermic Steen solution or its modifications. Cell apoptosis was quantified. Porcine lung EVLP was performed using Steen solution with added nutrients. […] During the experiment, EVLP was extended as long as the dynamic lung compliance was greater than 15 ml/cmH2O. […] Pig lungs were preserved at 4° C. followed by EVLP. […] Lung function assessment: Perfusate was sampled regularly. PO2, PCO2, pH, Na^+, K^+, Ca^2+, Cl^−, glucose and lactate were determined via a blood gas analyzer (see FIG. 17; Table 3). Pulmonary function was monitored continuously and assessed every hour, including static and dynamic compliances, peak airway inspiratory pressure, pulmonary artery pressure and pulmonary vascular resistance (PVR). Lung tissue biopsies were collected before, during and at the end of EVLP. Lung wet-to-dry ratio was measured as an indicator of lung edema.

[3] = pH of Steen solution after addition of nutrients; format: physicochemical; details: nutrient added to Steen solution (GlutaMax at 4 mM; amino acids at clinically recommended concentrations)
Description: Amino acids are essential nutrients for cell proliferation. In rat lungs, the lack of amino acids and insulin in perfusate reduced protein synthesis, while vitamin C prolonged the viability and stability of perfused rat lungs by slowing the decline of mitochondrial activity. Therefore, clinically recommended concentrations of amino acids and/or vitamins were added in Steen solution to improve its performance.

[4] = different concentrations of Albumin (1, 2, 4, 7%) and Dextran 40 (5, 25, 50 g/L) in Steen solution
[5] = CIT 6 h and EVLP 4 h, listed as GlutaMAX
[6] = pig lung EVLP, first 18 h, compared with historical control

Compound: Dextran 40
- cell confluence, apoptosis and migration [1, 4]: no major differences
- cell confluence, apoptosis and migration [2, 4]: no major differences

- pH [3]: maintained in the physiological range
Compound: C[C@H](N)C(=O)N[C@@H](CCC(N)=O)C(=O)O [GlutaMax, L-alanyl-L-glutamine] (H-Ala-Gln-OH)
- apoptosis [1]: reduced apoptosis
- cell migration [1]: improved cell migration
- apoptosis ([1]; listed as L-alanyl-L-glutamine): significantly inhibited cell apoptosis
- cell migration ([1]; listed as L-alanyl-L-glutamine): improved cell migration
- apoptosis [2]: reduced apoptosis
- cell migration [2]: improved cell migration
- apoptosis ([2]; listed as L-alanyl-L-glutamine): significantly inhibited cell apoptosis
- cell migration ([2]; listed as L-alanyl-L-glutamine): improved cell migration
- HSP70 production (protein expression in cell lysates) (BEAS-2B; CIT 6 h and EVLP 4 h): promoted HSP70 production; also recorded: enhanced HSP70 production
- total GSH production (BEAS-2B; CIT 6 h and EVLP 4 h): enhanced total GSH production
- total GSH production (BEAS-2B; [5]): enhanced Total GSH production
- apoptosis (BEAS-2B): reduced apoptosis
- apoptosis (BEAS-2B; listed as Glutamax): reduced apoptosis
- apoptosis (BEAS-2B; listed as gln): significantly reduced apoptosis
- HSP70 production (protein expression in cell lysates) (HPMEC; CIT 6 h and EVLP 4 h): promoted HSP70 production; also recorded: enhanced HSP70 production
- total GSH production (HPMEC; CIT 6 h and EVLP 4 h): enhanced total GSH production
- total GSH production (HPMEC; [5]): enhanced Total GSH production
- apoptosis (HPMEC): reduced apoptosis
- apoptosis (HPMEC; listed as Glutamax): reduced apoptosis
- apoptosis (HPMEC; listed as gln): significantly reduced apoptosis
- IL-8 production (IL-8): inhibited IL-8 production
- lung function (pig lung; pig lung EVLP): improved lung function
- lung function (pig lung; pig lung EVLP, listed as gln): stable lung function
- delta PO2 (pig lung; [6]): higher
- dynamic compliance (pig lung; [6]): higher
- peak airway pressure (pig lung; [6]): lower
- EVLP period (pig lung; pig lung EVLP, gln added to Steen solution): significantly extend
- EVLP duration reached (pig lung; pig lung, EVLP extended as long as dynamic lung compliance greater than 15 ml/cmH2O): 36 h
